Test results published in PMC9822066 (Molecules, 2022).
Several values for one entry are separate records, joined by “and”; a condition that tells them apart may be missing. Identical values can stand only once. Like-named read-outs stand apart in the source and are kept apart here.

What was measured:
[1] = target: T1, electric eel AChE (eeAChE) (Electrophorus electricus, UniProt O42275); experiment: biochemical; settings: mean ± SEM, triplicate independent experiments; read-out: eeAChE IC50
T1 construct: purchased Sigma–Aldrich (Steinheim, Germany)
T1 sequence (O42275 24-633): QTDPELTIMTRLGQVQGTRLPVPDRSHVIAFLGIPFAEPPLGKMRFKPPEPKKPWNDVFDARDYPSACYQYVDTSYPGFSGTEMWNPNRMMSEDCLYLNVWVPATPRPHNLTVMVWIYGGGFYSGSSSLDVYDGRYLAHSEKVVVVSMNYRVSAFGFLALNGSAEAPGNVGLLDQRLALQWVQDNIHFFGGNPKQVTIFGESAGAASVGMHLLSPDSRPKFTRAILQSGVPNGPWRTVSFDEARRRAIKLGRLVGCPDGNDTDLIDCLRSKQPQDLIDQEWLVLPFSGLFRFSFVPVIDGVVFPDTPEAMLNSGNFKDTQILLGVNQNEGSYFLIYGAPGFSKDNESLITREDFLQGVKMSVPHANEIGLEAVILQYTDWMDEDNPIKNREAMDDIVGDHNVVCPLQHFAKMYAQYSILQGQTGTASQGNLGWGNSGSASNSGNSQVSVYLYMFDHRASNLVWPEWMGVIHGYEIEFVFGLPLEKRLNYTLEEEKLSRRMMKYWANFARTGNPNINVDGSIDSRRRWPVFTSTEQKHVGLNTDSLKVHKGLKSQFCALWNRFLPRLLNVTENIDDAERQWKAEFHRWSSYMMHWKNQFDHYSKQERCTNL

hMAO B = target: T2, hMAO B (Homo sapiens, UniProt P27338); experiment: Fluorometric MAO assay, hMAO B inhibition; assay type: biochemical; settings: mean ± SEM of two independent experiments, read-out: hMAO B %Inh. at 1 µM
T2 sequence (P27338 1-520): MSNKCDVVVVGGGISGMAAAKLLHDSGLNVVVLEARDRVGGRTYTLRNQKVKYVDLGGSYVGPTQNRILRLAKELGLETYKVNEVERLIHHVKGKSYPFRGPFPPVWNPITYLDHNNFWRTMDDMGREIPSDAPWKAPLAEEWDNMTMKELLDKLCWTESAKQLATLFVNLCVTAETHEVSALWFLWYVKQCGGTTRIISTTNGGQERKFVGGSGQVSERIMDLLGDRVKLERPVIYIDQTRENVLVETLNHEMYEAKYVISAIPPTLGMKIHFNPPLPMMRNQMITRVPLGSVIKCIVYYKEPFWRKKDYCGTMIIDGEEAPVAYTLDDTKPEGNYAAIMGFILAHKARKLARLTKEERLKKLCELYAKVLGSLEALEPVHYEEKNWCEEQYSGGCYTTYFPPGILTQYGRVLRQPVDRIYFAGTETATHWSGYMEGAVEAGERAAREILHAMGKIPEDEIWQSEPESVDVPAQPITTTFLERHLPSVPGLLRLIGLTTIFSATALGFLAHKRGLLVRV

[2] = target: BuChE from equine serum (eqBuChE) (Equus caballus, UniProt P81908); experiment: biochemical; assay type: biochemical; settings: mean ± SEM, triplicate independent experiments
Sequence of BuChE from equine serum (eqBuChE) (P81908 whole entry): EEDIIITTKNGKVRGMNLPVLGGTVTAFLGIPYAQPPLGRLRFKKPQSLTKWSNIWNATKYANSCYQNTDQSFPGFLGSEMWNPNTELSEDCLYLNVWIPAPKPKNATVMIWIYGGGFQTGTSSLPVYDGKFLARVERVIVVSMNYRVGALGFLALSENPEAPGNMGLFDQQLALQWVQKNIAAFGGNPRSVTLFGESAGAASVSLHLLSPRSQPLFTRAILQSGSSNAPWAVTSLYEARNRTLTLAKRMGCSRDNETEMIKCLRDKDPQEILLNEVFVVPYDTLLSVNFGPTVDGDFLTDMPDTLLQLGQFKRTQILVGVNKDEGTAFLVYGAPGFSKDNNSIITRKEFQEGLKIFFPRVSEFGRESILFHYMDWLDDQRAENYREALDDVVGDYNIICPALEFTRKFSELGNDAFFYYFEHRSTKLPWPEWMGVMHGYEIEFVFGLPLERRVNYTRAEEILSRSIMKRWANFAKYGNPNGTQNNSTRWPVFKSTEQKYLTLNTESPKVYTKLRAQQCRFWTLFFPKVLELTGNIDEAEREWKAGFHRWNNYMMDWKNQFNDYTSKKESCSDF

[3] = tested on: SH-SY5Y neuroblastoma cells; experiment: Highest non-toxic concentration estimated before the neuroprotection assay; assay type: cell-based
Procedure: […]. however, it was statistically insignificant. […] Statistical significance was calculated against the number of necrotic cells in the H2O2-treated population. Additionally, the MTS test was performed in which the viability of cells was measured.

[4] = tested on: SH-SY5Y neuroblastoma cells; experiment: Neuroprotection against H2O2, LDH necrosis assay; assay type: cell-based; settings: 10 µM, 300 µM H2O2, 24 h
[5] = Metabolic stability in mouse liver microsomes; assay type: in vitro ADME
Procedure: The metabolic stability of 6 was investigated first in silico with the use of MetaSite 6.0.1 software.
The in silico prediction of the most possible metabolic pathways was conducted by MetaSite 6.0.1. Software (Molecular Discovery Ltd., Borehamwood, UK). […] The compound was incubated for 120 min at 37 °C in TRIS-HCl buffer (pH 7.4) with the addition of NADPH Regeneration System (Promega, Madison, WI, USA). The LC/MS analysis and MS/MS fragmentations were used as a tool for the determination of the substrate remaining and the structures of the metabolites.

in vitro = settings: PAMPA
eqBuChE = eqBuChE (Equus caballus, UniProt P81908); experiment: Kinetic study of eqBuChE inhibition (Lineweaver-Burk, Cornish-Bowden); assay type: biochemical, equine; settings: substrate butyrylthiocholine
Sequence of eqBuChE (P81908 whole entry): as above
Procedure: (§1) The inhibitor was tested in the concentrations giving enzyme activities between 30% and 80%. For each concentration of the inhibitor, substrate (ATC/BTC) was added at concentrations of 0.3, 0.24, 0.18, 0.12, 0.06, and 0.04 mM in the wells. The stock solutions of ATC and BTC (0.5 mM) were prepared in water and diluted before use. Each experiment was performed in triplicate. Vmax and Km values of the Michaelis−Menten kinetics were calculated by nonlinear regression from substrate−velocity curves. Lineweaver–Burk and Cornish–Bowden plots were calculated using linear regression in GraphPad Prism 5 (GraphPad Software, San Diego, CA, USA).

[6] = PAMPA, triplicate
mice [7] = experiment: Formalin test; assay type: in vivo; settings: Mus musculus, ip
[8] = tested on: SH-SY5Y neuroblastoma cells; experiment: Neuroprotection against H2O2, MTS viability assay; assay type: cell-based; settings: 10 µM, 300 µM H2O2, 24 h
mice [9] = experiment: Passive Avoidance Test, scopolamine-induced amnesia; assay type: in vivo; design: unit not given here; settings: mean ± SEM
human H3R = target: T3, human H3R (Homo sapiens, UniProt Q9Y5N1); experiment: [3H]Nα-methylhistamine radioligand binding assay in HEK293 cells stably expressing hH3R
T3 construct: expressed in transfected cells; host or cells: HEK293
T3 sequence (Q9Y5N1 whole entry): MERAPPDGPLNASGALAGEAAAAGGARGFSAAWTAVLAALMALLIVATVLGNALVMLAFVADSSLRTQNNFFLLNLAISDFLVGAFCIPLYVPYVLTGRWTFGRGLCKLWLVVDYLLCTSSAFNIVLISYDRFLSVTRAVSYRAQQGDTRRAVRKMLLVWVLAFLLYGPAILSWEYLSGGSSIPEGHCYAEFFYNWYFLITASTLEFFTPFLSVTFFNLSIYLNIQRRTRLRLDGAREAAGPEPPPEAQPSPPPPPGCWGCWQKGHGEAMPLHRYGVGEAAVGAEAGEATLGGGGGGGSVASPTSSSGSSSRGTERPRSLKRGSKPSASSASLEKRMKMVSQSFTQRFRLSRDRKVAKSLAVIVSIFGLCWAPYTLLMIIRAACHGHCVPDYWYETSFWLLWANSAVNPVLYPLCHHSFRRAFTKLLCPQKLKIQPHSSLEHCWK
Procedure: Final compounds were tested for their H3R affinity in a radioligand binding assay using [^3H]N^α-methylhistamine as radioligand in HEK293 cells stably expressing hH3R [25]. […] Affinity to hH3R stably expressed in HEK293 cells was evaluated in a radioligand binding assay as described previously. […] The radioactivity was counted in a MicroBeta Trilux counter (PerkinElmer). Data were fitted to a one-site curve-fitting equation with Prism 6 (GraphPad Software, San Diego, CA, USA) and Ki values were calculated from IC50 values (from at least three experiments performed in duplicates) according to the Cheng−Prusoff equation [52].

eeAChE = target: T4, eeAChE (Electrophorus electricus, UniProt O42275); experiment: Kinetic study of eeAChE inhibition (Lineweaver-Burk, Cornish-Bowden); assay type: biochemical, electric eel; settings: substrate acetylthiocholine
T4 construct: purchased Sigma–Aldrich (Steinheim, Germany)
T4 sequence (O42275 24-633): as the sequence (O42275 24-633) above
Procedure: as §1

hepatoma HepG2 cells = experiment: Hepatotoxicity, MTS viability of HepG2 cells
Procedure: Doxorubicin (DX) at the concentration of 1 μM was used as the reference cytostatic drug.
A multifunctional reader EnSpire (PerkinElmer, Waltham, MA, USA) was used to measure the absorbance.

[10] = target: T5, human recombinant AChE (hAChE) (Homo sapiens, UniProt P22303); experiment: Ellman's colorimetric assay, hAChE inhibition; assay type: biochemical
T5 construct: purchased Sigma–Aldrich (Steinheim, Germany)
T5 sequence (P22303 32-614): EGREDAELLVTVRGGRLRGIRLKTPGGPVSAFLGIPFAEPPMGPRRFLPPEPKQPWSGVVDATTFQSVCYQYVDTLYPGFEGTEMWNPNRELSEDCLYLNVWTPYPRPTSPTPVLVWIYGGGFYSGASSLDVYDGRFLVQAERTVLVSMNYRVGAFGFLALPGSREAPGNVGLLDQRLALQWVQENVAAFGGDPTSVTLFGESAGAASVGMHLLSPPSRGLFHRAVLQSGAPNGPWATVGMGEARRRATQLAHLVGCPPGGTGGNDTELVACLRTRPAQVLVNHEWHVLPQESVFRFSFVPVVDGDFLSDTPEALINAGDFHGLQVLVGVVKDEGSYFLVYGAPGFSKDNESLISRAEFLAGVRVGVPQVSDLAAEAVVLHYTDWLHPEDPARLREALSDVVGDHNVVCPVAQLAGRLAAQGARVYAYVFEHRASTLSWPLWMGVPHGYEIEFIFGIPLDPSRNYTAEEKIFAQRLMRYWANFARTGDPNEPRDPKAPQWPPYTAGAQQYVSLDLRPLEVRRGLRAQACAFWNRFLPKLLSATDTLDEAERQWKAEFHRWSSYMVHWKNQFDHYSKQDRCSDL

[11] = target: T6, BuChE from human serum (hBuChE) (Homo sapiens, UniProt P06276); experiment: Ellman's colorimetric assay, hBuChE inhibition; assay type: biochemical
T6 construct: Human BuChE from human serum was provided by Vivonics (Bedford, MA, USA); purchased Vivonics (Bedford, MA, USA); host or cells: human serum
T6 sequence (P06276 29-602): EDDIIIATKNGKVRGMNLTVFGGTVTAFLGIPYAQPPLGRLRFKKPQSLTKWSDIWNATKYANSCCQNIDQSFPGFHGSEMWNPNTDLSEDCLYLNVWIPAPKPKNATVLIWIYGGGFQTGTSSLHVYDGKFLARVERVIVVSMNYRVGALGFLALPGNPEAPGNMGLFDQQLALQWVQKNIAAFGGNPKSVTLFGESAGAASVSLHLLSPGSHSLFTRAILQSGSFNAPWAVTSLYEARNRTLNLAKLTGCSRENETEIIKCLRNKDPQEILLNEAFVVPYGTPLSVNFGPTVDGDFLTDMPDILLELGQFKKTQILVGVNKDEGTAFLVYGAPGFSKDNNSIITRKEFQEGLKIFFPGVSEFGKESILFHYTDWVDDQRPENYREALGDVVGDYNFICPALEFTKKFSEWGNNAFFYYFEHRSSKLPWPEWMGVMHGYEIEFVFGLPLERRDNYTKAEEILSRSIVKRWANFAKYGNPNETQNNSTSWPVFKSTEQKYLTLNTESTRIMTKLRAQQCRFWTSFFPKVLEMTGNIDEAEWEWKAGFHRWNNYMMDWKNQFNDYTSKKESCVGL

## O=C(O)C(=O)O.O=C(c1ccc(F)cc1)c1ccc(OCCCCCN2CCCCC2)cc1 [Compound 6, (4-Fluorophenyl) (4-((5-(piperidin-1-yl)pentyl)oxy)phenyl)methanone hydrogen oxalate]
[1]
  IC50: 2.31 µM
hMAO B
  inhibition at 1 µM: 25%
[2]
  IC50: 0.17 µM and 0.172 µM
[3]
  highest non-toxic concentration: 10 µM
[4]
  effect on necrosis (LDH test): slight inhibition of the necrosis process
[5]; MLMs, 120 min, UPLC
  % biotransformed: around 34%
[5]; MLMs, 120 min incubation
  % Remaining: 65.95%
[5]; MLMs, metabolites M1, M2, M3
  Metabolic Pathway: reduction of carbonyl group hydroxylation reduction of carbonyl group, hydroxylation
[5]; mouse liver microsomes
  metabolic stability (in words): moderate metabolic stability
[5]; mouse, mouse liver microsomes, pH 7.4, MLMs, 120 min incubation
  remaining at 2 h: 66%
In vitro
  Papp: 6.3 ×10⁻⁶ cm/s
eqBuChE
  mechanism of eqBuChE inhibition: mix type
[6]
  Pe ± SD: 6.3 ± 0.6 10^−6 cm/s
Mice [7]; 0–5 min after formalin, read-out: ED50 phase I (acute pain)
  ED50: 20.9 mg/kg
Mice [7]; 15–30 min after formalin, read-out: ED50 phase II (inflammatory pain)
  ED50: 17.5 mg/kg
[8]
  effect on viability (MTS test): no increase in the viability
Mice [9]; 15 mg/kg i.p. in scopolamine-treated mice
  latency time in the retention trial: 47.07 ± 17.56
Mice [9]; 15 mg/kg i.p., without scopolamine
  latency time in the retention trial: 151.89 ± 5.46
Mice [9]; 30 mg/kg i.p. in scopolamine-treated mice
  latency time in the retention trial: 51.56 ± 21.17
Human H3R
  Ki: 0.008 µM
eeAChE
  mechanism of eeAChE inhibition: non-competitive
Hepatoma HepG2 cells; 72 h incubation, MTS
  concentration decreasing HepG2 cell viability: ≥ 10 µM
Hepatoma HepG2 cells; HepG2 cells
  concentration range with lack of hepatotoxicity effect: 0.1 to 1 µM
[10]
  IC50: 9.59 µM
[11]
  IC50: 1.16 µM
